Data: ChEMBL document CHEMBL1201862, “PubChem BioAssay data set” (2004)
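In this assay, cells in 96-well plates receive the compound at five concentrations for 48 hours. Endpoints are linearly interpolated between the surrounding concentrations. GI50: concentration for 50% inhibition of growth.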 Activity calls are given as the source filed them. Cut-off read from the data, not from the text of the source: active = GI50 up to about 1.1 µM and inactive = higher.

Key:
Experiment in all cases: DTP human tumour cell line panel, 48 h
ACHN = tested on: ACHN
OVCAR-4 = tested on: OVCAR-4
A549 = tested on: A549
SK-OV-3 = tested on: SK-OV-3
K562 = tested on: K562
IGROV-1 = tested on: IGROV-1
SK-MEL-5 = tested on: SK-MEL-5
SNB-19 = tested on: SNB-19
KM12 = tested on: KM12
EKVX = tested on: EKVX
DLD-1 = tested on: DLD-1
COLO 205 = tested on: COLO 205
CCRF-CEM = tested on: CCRF-CEM
SK-MEL-2 = tested on: SK-MEL-2
HCT-15 = tested on: HCT-15
Hs-578T = tested on: Hs-578T
T47D = tested on: T47D
RXF 393 = tested on: RXF 393
BT-549 = tested on: BT-549
NCI/ADR-RES = tested on: NCI/ADR-RES

SMILES	GI50 (ACHN)	GI50 (OVCAR-4)	GI50 (A549)	GI50 (SK-OV-3)	GI50 (K562)	GI50 (IGROV-1)	GI50 (SK-MEL-5)	GI50 (SNB-19)	GI50 (KM12)	GI50 (EKVX)	GI50 (DLD-1)	GI50 (COLO 205)	GI50 (CCRF-CEM)	GI50 (SK-MEL-2)	GI50 (HCT-15) [µM]	GI50 (Hs-578T)	GI50 (T47D)	GI50 (RXF 393)	GI50 (BT-549)	GI50 (NCI/ADR-RES)
CC(=O)Oc1c(-c2ccccc2)[nH]c2cc([N+](=O)[O-])c(/C(Cl)=C/c3ccccc3)cc12	5.4 µM (inactive)	5.42 µM (inactive)	6.15 µM (inactive)	26.9 µM (inactive)	3.82 µM (inactive)	9.46 µM (inactive)	1.89 µM (inactive)	8.97 µM (inactive)	3.97 µM (inactive)	8.53 µM (inactive)	3.71 µM (inactive)	4 µM (inactive)	3.61 µM (inactive)	9.57 µM (inactive)						
O=C1C2=C(c3ccccc31)C(c1ccccc1Cl)N1C(=O)CSC1=N2 (centres undefined)	> 100 µM (inactive)	60.1 µM (inactive)	> 100 µM (inactive)	> 100 µM (inactive)	50.4 µM (inactive)	> 100 µM (inactive)	> 100 µM (inactive)	> 100 µM (inactive)	> 100 µM (inactive)	> 100 µM (inactive)	> 100 µM (inactive)	> 100 µM (inactive)	44.3 µM (inactive)	> 100 µM (inactive)	83.4					
Cc1ccc(S(=O)(=O)C2=c3nc4ccccc4cc3=C3C(=O)c4ccccc4C(=O)C32)cc1 (centres undefined)	> 100 µM (inactive)	> 100 µM (inactive)	> 100 µM (inactive)	0.394 µM (active)	> 100 µM (inactive)	> 100 µM (inactive)	63.2 µM (inactive)	> 100 µM (inactive)	> 100 µM (inactive)	> 100 µM (inactive)	> 100 µM (inactive)	> 100 µM (inactive)	> 100 µM (inactive)	> 100 µM (inactive)	> 100					
O=C1OC(c2ccccc2)(c2ccccc2)CC1CN1CCOCC1 (centres undefined)	17.7 µM (inactive)	23.1 µM (inactive)	10.7 µM (inactive)	26.5 µM (inactive)	24.2 µM (inactive)	> 100 µM (inactive)	29.3 µM (inactive)	44.7 µM (inactive)	16.7 µM (inactive)	33.7 µM (inactive)	17.1 µM (inactive)	6.18 µM (inactive)	2.77 µM (inactive)	17.9 µM (inactive)	16.1					
CC#COS(=O)(=O)c1ccc(C)cc1	58.2 µM (inactive)	58.5 µM (inactive)	44.3 µM (inactive)	84.3 µM (inactive)	36.8 µM (inactive)	> 100 µM (inactive)	37.4 µM (inactive)	> 100 µM (inactive)	59.2 µM (inactive)	53.5 µM (inactive)	30.8 µM (inactive)	39.9 µM (inactive)	27.9 µM (inactive)	> 100 µM (inactive)	79.8					
Nc1nc(N)c(CCCCc2ccccc2)c(/C=C/c2ccc([N+](=O)[O-])cc2)n1	3.4 µM (inactive)	3.94 µM (inactive)	0.388 µM (active)	6.67 µM (inactive)	0.348 µM (active)	2.8 µM (inactive)	2.18 µM (inactive)	3.8 µM (inactive)	3.03 µM (inactive)	4.44 µM (inactive)	2.39 µM (inactive)	3.39 µM (inactive)	1.69 µM (inactive)	2.79 µM (inactive)	1.25					
COc1cc(-c2[o+]c3cc(O)cc(O)c3cc2O)cc(O)c1O	> 100 µM (inactive)	60 µM (inactive)	> 100 µM (inactive)	> 100 µM (inactive)	> 100 µM (inactive)	> 100 µM (inactive)	> 100 µM (inactive)	> 100 µM (inactive)	> 100 µM (inactive)	92.9 µM (inactive)		> 100 µM (inactive)	25.9 µM (inactive)	> 100 µM (inactive)	> 100	> 100 µM (inactive)	> 100 µM (inactive)	> 100 µM (inactive)	> 100 µM (inactive)	> 100 µM (inactive)
COC(OC)(c1ccccc1)C(I)I	16.5 µM (inactive)	14.2 µM (inactive)	18.5 µM (inactive)	12.1 µM (inactive)	2.58 µM (inactive)	13.9 µM (inactive)	8.61 µM (inactive)	35.3 µM (inactive)	16.3 µM (inactive)	12 µM (inactive)		8.69 µM (inactive)	2.31 µM (inactive)	13.8 µM (inactive)	6.61	20.1 µM (inactive)	19.2 µM (inactive)	2.32 µM (inactive)	11 µM (inactive)	16.3 µM (inactive)
COc1cc(O)c2c(=O)c3c(C)cccc3n(C)c2c1	> 10 µM (inactive)	> 10 µM (inactive)	> 10 µM (inactive)	> 10 µM (inactive)	> 10 µM (inactive)	> 10 µM (inactive)	> 10 µM (inactive)	> 10 µM (inactive)	> 10 µM (inactive)	4.17 µM (inactive)		> 10 µM (inactive)	> 10 µM (inactive)	> 10 µM (inactive)	> 10	> 10 µM (inactive)	> 10 µM (inactive)	> 10 µM (inactive)	> 10 µM (inactive)	> 10 µM (inactive)
NC(CSC1(c2ccc(Cl)cc2)c2ccccc2-c2ccccc21)C(=O)O (centres undefined)	22.8 µM (inactive)	22.2 µM (inactive)	31.3 µM (inactive)	25.1 µM (inactive)	26.2 µM (inactive)	13.5 µM (inactive)	16.2 µM (inactive)	21.3 µM (inactive)	24.1 µM (inactive)	67.1 µM (inactive)		15.5 µM (inactive)	29.1 µM (inactive)	20.9 µM (inactive)	21.6	18.2 µM (inactive)	29 µM (inactive)	31.6 µM (inactive)	18.2 µM (inactive)	39.1 µM (inactive)
CC(C)(C)OC(=O)NC(Cc1c[nH]cn1)C(=O)N1CCCC1C(N)=O (centres undefined)	> 100 µM (inactive)	> 100 µM (inactive)	> 100 µM (inactive)	> 100 µM (inactive)	> 100 µM (inactive)	> 100 µM (inactive)	> 100 µM (inactive)	> 100 µM (inactive)	> 100 µM (inactive)	> 100 µM (inactive)		> 100 µM (inactive)	> 100 µM (inactive)	> 100 µM (inactive)	> 100	> 100 µM (inactive)	> 100 µM (inactive)	2.17 µM (inactive)	> 100 µM (inactive)	> 100 µM (inactive)
O=C(O)CCN(CCCCN(CCC(=O)O)CCC(=O)O)CCC(=O)O	> 100 µM (inactive)	> 100 µM (inactive)	> 100 µM (inactive)	> 100 µM (inactive)	> 100 µM (inactive)	> 100 µM (inactive)	> 100 µM (inactive)		> 100 µM (inactive)	> 100 µM (inactive)	> 100 µM (inactive)	> 100 µM (inactive)	> 100 µM (inactive)	> 100 µM (inactive)	> 100					
CCN(CC)CCCn1c(=O)c2cccnc2n2c3c(=O)n(C)c(=O)n(C)c3nc12	> 100 µM (inactive)	> 100 µM (inactive)	> 100 µM (inactive)	> 100 µM (inactive)	> 100 µM (inactive)	> 100 µM (inactive)	> 100 µM (inactive)	> 100 µM (inactive)	> 100 µM (inactive)	> 100 µM (inactive)		> 100 µM (inactive)	> 100 µM (inactive)	> 100 µM (inactive)	> 100	> 100 µM (inactive)	> 100 µM (inactive)	> 100 µM (inactive)	> 100 µM (inactive)	> 100 µM (inactive)
O=P(c1ccccc1)(c1ccccc1)N1O[C@@H](c2ccccc2)C=C[C@H]1c1ccccc1	10.2 µM (inactive)	2.57 µM (inactive)	8.81 µM (inactive)	15.1 µM (inactive)	6.17 µM (inactive)	10.8 µM (inactive)	11.4 µM (inactive)	14.8 µM (inactive)	14.5 µM (inactive)	10.4 µM (inactive)		12.3 µM (inactive)	10.5 µM (inactive)	12 µM (inactive)	10	14.2 µM (inactive)	4.61 µM (inactive)	10 µM (inactive)	17.5 µM (inactive)	7.13 µM (inactive)
CCCC[C@H]1C(=O)O[C@H](C)[C@H](NC(=O)c2cccc(NC=O)c2OC)C(=O)O[C@@H](C)[C@@H]1OC(=O)C(C)CC.CCCC[C@H]1C(=O)O[C@H](C)[C@H](NC(=O)c2cccc(NC=O)c2OC)C(=O)O[C@@H](C)[C@@H]1OC(=O)CC(C)C (some centres undefined)	10.8 µM (inactive)	7.94 µM (inactive)	10.3 µM (inactive)	12.5 µM (inactive)	12.2 µM (inactive)	7.1 µM (inactive)	12 µM (inactive)	9.44 µM (inactive)	11.6 µM (inactive)	11 µM (inactive)		11.7 µM (inactive)	3.32 µM (inactive)	6.07 µM (inactive)	12.8	17.7 µM (inactive)	14 µM (inactive)	14.1 µM (inactive)	16.8 µM (inactive)	23 µM (inactive)
Cc1cc(C)c2nc3c(c(C(O)C4CCCCN4)c2c1)CC/C3=C\c1ccc(Cl)cc1 (centres undefined)	78.3 µM (inactive)	58.9 µM (inactive)	76 µM (inactive)	74.3 µM (inactive)	38 µM (inactive)	84.1 µM (inactive)	28.9 µM (inactive)	> 100 µM (inactive)	64.3 µM (inactive)	43.2 µM (inactive)		41 µM (inactive)	25.4 µM (inactive)	64.9 µM (inactive)	58.7	> 100 µM (inactive)	30.3 µM (inactive)	27.7 µM (inactive)	> 100 µM (inactive)	52.1 µM (inactive)
